# Columns and labels:
# [1] = test system: HeLa cell (pGL3 transfected); settings: pGL3 transfected to HeLa cell, measured with time
# Description: Specifically, in the experiments conducted by the present inventor, pGL3 was transfected to HeLa cell and, by making use of FCCP acting as an uncoupler, the production of ATP in mitochondria was suspended and then the luminescence intensity on this occasion was measured with time by making use of LUMINOVIEW (LV100) (trade name).
# cytoplasmic ATP = settings: 30 minutes after treatment with FCCP; cited from earlier work
smiles,measurement,setting,value
"N#CC(C#N)=NNc1ccc(OC(F)(F)F)cc1 [FCCP, carbonyl cyanide p-(trifluoromethoxy) phenylhydrazone]",luminescence intensity after FCCP,[1],not attenuated
same,concentration of cytoplasmic ATP relative to steady state,cytoplasmic ATP,about 50 % of that of steady state
